Assay results as given in publication PMC7927403, “Structure‐based identification of dual ligands at the A2AR and PDE10A with anti‐proliferative effects in lung cancer cell‐lines” (Journal of Cheminformatics, 2021).
One block for each compound: values may come before it.

Key:
CHO-K1-A2AR cells = assay: Proliferation assay (CCK-8) in CHO-K1-A2AR cells; format: cell-based; details: for IC50: read-out: pIC50 anti-proliferative effect (converted)
Procedure: (§1) To test the effect of compounds 1–6 upon proliferation, various cell types were seeded onto clear 96-well plates at proper densities for each; CHO-K1 (2000 cells well^− 1), CHO-K1-A2AR (2000 cells well^− 1), H520 (2500 cells well^− 1), H1563 (2500 cells well^− 1), H1792 (2500 cells well^− 1), LK-2 (2500 cells well^− 1). This was done in suitable media, and they were cultured for 24 hours. After the subsequent addition of compounds 1–6 (ranging 316 nM − 100 µM), cells were allowed to grow further for 72 hours. Quantification of changes in cell number was done by adding 5 µl CCK-8 reagent to each well, accompanied by incubation at 37 °C for 1–3 hours. The determination of OD450 was done using a Mithras LB940 micro-plate reader at 450 nm.
(§2) Data analysis was performed using GraphPad Prism 8.2.1 (San Diegeo, CA). […] As for proliferation assays, the normalization of all data was done relative to the responses obtained upon treating cells with 1 % (v/v) DMSO. Subsequently, a three-parameter logistic equation was used for fitting each set of normalized data β-galactosidase or cAMP data, in order to calculate pEC50/pIC50 and Emax values. Also, the fitting of the proliferation data was done using a three-parameter logistic equation constraining the basal value to 100 and the system maximum to the IMax value obtained for compound 2, since it elicited the maximum inhibition of cellular proliferation in all cell types tested. A one-way ANOVA with Dunnett’s post-test, or Student’s t-test was used to assess the statistical significance for all assays, where p < 0.05 was considered to be significant.

CHO-K1 cells = assay: Proliferation assay (CCK-8) in CHO-K1 cells; format: cell-based; details: for IC50: Cricetulus griseus, CHO-K1, 72 hours, read-out: pIC50 anti-proliferative effect (converted)
Procedure: as §1, §2

LK-2 cells [1] = assay: Proliferation assay (CCK-8) in LK-2 cells; format: cell-based, human; details: for IC50: Homo sapiens, LK-2, 72 hours, read-out: pIC50 anti-proliferative effect (converted)
Procedure: as §1, §2

H520 cells [2] = assay: Proliferation assay (CCK-8) in H520 cells; format: cell-based, human; details: for Imax anti-proliferative effect: H520, 10 μM agonist relative to 1% DMSO treatment; for IC50: Homo sapiens, NCI-H520, H520, 72 hours, read-out: pIC50 anti-proliferative effect (converted)
Procedure: as §1, §2

H1792 cells [3] = assay: Proliferation assay (CCK-8) in H1792 cells; format: cell-based, human; details: for Imax anti-proliferative effect: H1792, 10 μM agonist relative to 1% DMSO treatment; for IC50: Homo sapiens, NCI-H1792, H1792, 72 hours, read-out: pIC50 anti-proliferative effect (converted)
Procedure: as §1, §2

H1563 cells [4] = assay: Proliferation assay (CCK-8) in H1563 cells; format: cell-based, human; details: for Imax anti-proliferative effect: H1563, 10 μM agonist relative to 1% DMSO treatment; for IC50: Homo sapiens, NCI-H1563, H1563, 72 hours, read-out: pIC50 anti-proliferative effect (converted)
Procedure: as §1, §2

A2AR = test system: A2AR; set-up: method as in ChEMBL; details: confidence score equal to 9; ref ChEMBL; read-out: IC50 (A2AR antagonist); cited from earlier work
PDE10A = target: T1, PDE10A (Homo sapiens, UniProt Q9Y233); assay: PDE10A inhibition assay (BPS Bioscience PDE10A assay kit); format: biochemical; details: concentration-response at PDE10A
T1 construct: purchased BPS Bioscience, San Diego, CA
From the text: 400 pg of purified PDE10A was used per reaction, and the plates were read using a TECAN infinite M200.

A3R = target: T2, A3R (Homo sapiens, UniProt P0DMS8); assay: cAMP inhibition in CHO-K1-A3R cells co-stimulated with forskolin; format: cell-based
T2 construct: expressed in transfected cells
T2 sequence (P0DMS8 1-318): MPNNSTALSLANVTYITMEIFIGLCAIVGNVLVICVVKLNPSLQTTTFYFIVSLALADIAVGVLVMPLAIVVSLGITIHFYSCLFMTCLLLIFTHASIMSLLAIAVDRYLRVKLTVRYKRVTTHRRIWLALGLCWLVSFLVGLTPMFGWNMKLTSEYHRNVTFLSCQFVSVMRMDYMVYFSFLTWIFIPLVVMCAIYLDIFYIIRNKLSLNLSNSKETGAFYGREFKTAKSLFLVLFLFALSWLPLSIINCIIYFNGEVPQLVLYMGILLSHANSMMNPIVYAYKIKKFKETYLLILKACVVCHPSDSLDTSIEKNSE

LK-2 cells [5] = assay: cAMP accumulation in LK-2 cells; format: cell-based; details: Homo sapiens
From the text: (§3) Fig. 7 Lung squamous cell carcinoma and adenocarcinoma cells display increasing sensitivity to compounds 1, 3–5 in terms of proliferation, dependent upon combined A2AR and PDE10A expression. […] Data represented as a percentage of the cell number present after treatment with 1 % DMSO, ± SEM of 4–8 replicates. (B) Correlation plot for pEC50 of each compounds ability to stimulate cAMP production vs. its pIC50 for inhibiting proliferation. Data represented ± SEM. (C) Proliferation factor (pIC50 x span anti-proliferative Additional file 1: Table S5) calculated for 1, 3–6, CGS21680s and forskolin at LK-2, H520, H1792 and H1563 cells. Bars represent the mean Imax ± SEM, whilst individual data points are shown as a scatter plot.

H520 cells [6] = assay: cAMP accumulation in H520 cells; format: cell-based; details: Homo sapiens
From the text: as §3

H1792 cells [7] = assay: cAMP accumulation in H1792 cells; format: cell-based; details: Homo sapiens
From the text: as §3

H1563 cells [8] = assay: cAMP accumulation in H1563 cells; format: cell-based; details: Homo sapiens
From the text: as §3

Nluc-A2AR = target: T3, Nluc-A2AR (Homo sapiens, UniProt P29274); assay: NanoBRET ligand binding assay, competition with CA200645 in HEK293T cells
T3 construct: expressed in transfected cells; host or cells: HEK293T
T3 sequence (P29274 whole entry): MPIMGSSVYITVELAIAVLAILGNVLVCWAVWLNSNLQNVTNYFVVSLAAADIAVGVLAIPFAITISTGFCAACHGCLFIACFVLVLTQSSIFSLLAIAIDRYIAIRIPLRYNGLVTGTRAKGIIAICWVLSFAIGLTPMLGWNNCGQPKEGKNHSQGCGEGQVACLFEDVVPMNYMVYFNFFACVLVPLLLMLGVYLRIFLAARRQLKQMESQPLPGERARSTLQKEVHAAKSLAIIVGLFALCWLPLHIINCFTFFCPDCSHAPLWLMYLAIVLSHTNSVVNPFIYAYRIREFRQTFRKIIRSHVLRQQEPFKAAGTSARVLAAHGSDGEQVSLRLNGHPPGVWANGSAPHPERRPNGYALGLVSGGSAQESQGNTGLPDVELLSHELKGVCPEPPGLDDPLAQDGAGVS
From the text: We sought to validate the docking studies by quantifying the affinity of each compound at the A2AR using a NanoBRET binding assay. In this experiment, we used N-terminally tagged A2AR with Nanoluciferase (Nluc) that will emit bioluminescence in close proximity with the fluorescent probe, CA200645, in the presence of Nluc substrate. Firstly, we determine the affinity constant of CA200645 in our expression system. […] We next extended our studies to use a classical competition binding assay ([43, 44]) where non-fluorescent ligands compete for binding at the Nluc-A2AR with CA200645. […] HEK293T cells were seeded in 6-well plates at density of 10^6 cells/well and grown overnight at 37 °C in DMEM/F12 medium supplemented with 10 % FBS and 1 % antibiotic/antimycotic. […]
For association-dissociation kinetic experiments, following furimazine incubation, 40 nM of CA200645 (purchased from Hello Bio, Bristol, UK) was added and the plate was immediately read. […] BRET signal was recorded for either 50 minutes or 20 minutes, for kinetic experiments or competition assay as appropriate, on a Mithras LB940 plate reader allowing sequential integration of signal detected from fluorescent probe CA200645 and Nluc. […] Ligand-induced ΔBRET was used to construct the association-dissociation kinetic of the fluorescence probe and competition binding curve of unlabelled ligands. […]

T1 sequence (Q9Y233 1-779 isoform Q9Y233-1): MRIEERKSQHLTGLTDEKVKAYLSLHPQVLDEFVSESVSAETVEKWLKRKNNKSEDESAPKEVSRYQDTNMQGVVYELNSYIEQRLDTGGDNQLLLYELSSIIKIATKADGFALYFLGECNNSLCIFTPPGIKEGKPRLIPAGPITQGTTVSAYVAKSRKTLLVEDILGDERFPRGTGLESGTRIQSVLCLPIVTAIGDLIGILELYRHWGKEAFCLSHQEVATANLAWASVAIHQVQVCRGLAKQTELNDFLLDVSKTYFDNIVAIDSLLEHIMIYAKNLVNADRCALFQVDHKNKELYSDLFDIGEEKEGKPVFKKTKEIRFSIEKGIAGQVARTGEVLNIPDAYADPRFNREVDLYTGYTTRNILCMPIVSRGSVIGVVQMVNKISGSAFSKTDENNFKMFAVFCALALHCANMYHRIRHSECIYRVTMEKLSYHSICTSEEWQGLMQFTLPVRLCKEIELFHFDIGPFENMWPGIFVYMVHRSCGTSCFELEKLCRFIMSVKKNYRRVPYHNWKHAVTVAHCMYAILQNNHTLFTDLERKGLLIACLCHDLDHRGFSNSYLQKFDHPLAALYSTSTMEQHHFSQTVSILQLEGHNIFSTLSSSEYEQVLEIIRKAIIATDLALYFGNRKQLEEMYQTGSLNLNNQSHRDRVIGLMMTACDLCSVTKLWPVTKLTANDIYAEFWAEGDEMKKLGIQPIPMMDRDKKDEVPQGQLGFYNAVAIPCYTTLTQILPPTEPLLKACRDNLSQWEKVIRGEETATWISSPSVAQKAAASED

IC50 (H520 cells [2]): 85.1 µM | IC50 (H1792 cells [3]): 186 µM | IC50 (H1563 cells [4]): 148 µM
Compound: C=C[C@@]1(C)CC(=O)[C@]2(O)[C@@]3(C)[C@@H](O)CCC(C)(C)[C@@H]3[C@H](O)[C@H](OC(C)=O)[C@@]2(C)O1 [Forskolin]
IC50 (CHO-K1-A2AR cells; CHO-K1-A2AR, 72 hours): 37.2 µM | Imax anti-proliferative effect (CHO-K1-A2AR cells; CHO-K1-A2AR, 10 μM agonist relative to 1% DMSO treatment): 58.96±2.2 | Δ Imax (CHO-K1-A2AR cells; Imax (CHO-K1-A2AR) - Imax (CHO-K1)): -3.61±4.1 | Δ pIC50 (CHO-K1-A2AR cells; pIC50(CHO-K1-A2AR) - pIC50(CHO-K1)): -0.03±0.1 | Imax anti-proliferative effect (CHO-K1 cells; CHO-K1, 10 μM agonist relative to 1% DMSO treatment): 62.57±3.4 | IC50 (CHO-K1 cells): 34.7 µM | IC50 (LK-2 cells [1]): 324 µM | Imax anti-proliferative effect (H520 cells [2]): 31.2±2.1 % | Imax anti-proliferative effect (H1792 cells [3]): 25.9±1.0 % | Imax anti-proliferative effect (H1563 cells [4]): 29.9±1.1 %

Compound: COc1ccccc1Cn1cc2nc(-c3ccc(C)o3)nc(N)c2n1 [CHEMBL3799351]
IC50 (A2AR): 0.00435 µM

Compound: CCNC(=O)[C@H]1O[C@@H](n2cnc3c(N)nc(NCCc4ccc(CCC(=O)O)cc4)nc32)[C@H](O)[C@@H]1O [CGS21680]
activity at PDE10A (PDE10A): no significant activity | A3R functional activity (A3R): agonist activity | IC50 (CHO-K1-A2AR cells; CHO-K1-A2AR, 72 hours): > 100 µM | anti-proliferative effect (CHO-K1-A2AR cells; CHO-K1 and CHO-K1-A2AR cells, 72 hours, CCK-8): no anti-proliferative effects | IC50 (CHO-K1 cells): > 100 µM | EC50 (LK-2 cells [5]; 0.5 h, LK-2, 30 minutes, read-out: pEC50 cAMP accumulation (converted)): 14.5 µM | Emax (LK-2 cells [5]; LK-2, percentage of 100 μM forskolin): 7.64 ± 1.6% | EC50 (H520 cells [6]; NCI-H520, 0.5 h, H520, 30 minutes, read-out: pEC50 cAMP accumulation (converted)): 3.31 µM | Emax (H520 cells [6]; NCI-H520, H520, percentage of 100 μM forskolin): 20.8 ± 1% | EC50 (H1792 cells [7]; NCI-H1792, 0.5 h, H1792, 30 minutes, read-out: pEC50 cAMP accumulation (converted)): 3.02 µM | Emax (H1792 cells [7]; NCI-H1792, H1792, percentage of 100 μM forskolin): 27.3 ± 2.1% | EC50 (H1563 cells [8]; NCI-H1563, 0.5 h, H1563, 30 minutes, read-out: pEC50 cAMP accumulation (converted)): 4.57 µM | Emax (H1563 cells [8]; NCI-H1563, H1563, percentage of 100 μM forskolin): 15.6 ± 1.6% | IC50 (LK-2 cells [1]): > 100 µM | Imax anti-proliferative effect (LK-2 cells [1]; LK-2, 10 μM agonist relative to 1% DMSO treatment): -3.55±2.6% | Imax anti-proliferative effect (H520 cells [2]): 0.55±2.0 % | IC50 (H520 cells [2]): > 100 µM | Imax anti-proliferative effect (H1792 cells [3]): -4.07±1.6 % | IC50 (H1792 cells [3]): > 100 µM | Imax anti-proliferative effect (H1563 cells [4]): 18.87±1.8 % | IC50 (H1563 cells [4]): 214 µM

disassociation constant (KD) of CA200645 at the Nluc-A2AR (Nluc-A2AR; kinetic association then dissociation, 40 nM CA200645, HEK293 cells): 0.065 µM
Compound: CA200645

displacement of CA200645 (Nluc-A2AR; competition with 300 nM CA200645): failed to displace CA200645
Compound: CC(C)NCC(O)c1ccc(O)c(O)c1 (stereo not shown) [isoprenaline]
